The subject of test [1] is interferon regulatory factor (IRF) pathway in THP-1 dual cells. The experiment in a line: THP-1 Dual reporter assay, IRF pathway (luciferase). In kind it is cell-based. As to conditions: read-out: THP1 Dual EC50 (μM) IRF. Here is the method: (§1) Compounds of the present invention were tested for their activity using THP-1 dual cells (Invivogen, cat no. thpd-nfis) allowing for simultaneous study of NF-κB pathway and the interferon regulatory factor (IRF) pathway. THP-1 dual cells contain luciferase reporter gene under the control of an ISG54 (interferon-stimulated gene) minimal promoter in conjunction with five interferon-stimulated response elements and a secreted embryonic alkaline phosphatase reporter gene under the control an IFN (interferon)-β minimal promoter fused to five copies of the NF-κB consensus transcriptional response element with three copies of the c-Rel binding site. Following 18 h of stimulation with STING agonist, medium was collected and transferred onto fresh cell culture plate. To verify activity of the IRF pathway, luminescence activity was measured with standard laboratory plate reader immediately after addition 10 μl of the medium to 40 or 50 μl of luminescence reagent (Invivogen, cat. No. rep-qlc2). To verify activity of NF-κB pathway, 10 or 20 μl of the medium was mixed with 80 μl of a detection medium (Invivogen, cat. No. rep-qb2) and incubated for 1 or 2 hours at 37° C. in a humidified atmosphere containing 5% CO2. Next, absorbance at 630 or 655 nm was recorded using standard laboratory plate reader.
Background: In a reporter assay the amount or activity of a reporter protein is the signal.

Test [2] deals with NF-κB pathway in THP-1 dual cells. The test can be described thus: THP-1 Dual reporter assay, NF-κB pathway (SEAP). The test is classed as cell-based. As to conditions: Homo sapiens, THP1-Dual, read-out: THP1 Dual EC50 (μM) NFkB. The procedure:
as §1

Setting [3] is: Homo sapiens, THP1-Dual, 18 h stimulation, luminescence.
Setting [4] is: 18 h stimulation, absorbance at 630 or 655 nm.

Counter-ions that a name gives are not always drawn. Like-named read-outs stand apart in the source and are kept apart here.

`Cc1ccc(N2CCC[C@H](N(Cc3ccnc(C)c3)Cc3cn(C4CC4)c4cc(N5CCO[C@H](CO)C5)c(F)cc4c3=O)C2)cn1` (single isomer, unassigned) [Example 73]: the EC50 in test [1] (setting [3]) and in test [2] (setting [4]) was less than 1 µM throughout. `Cc1cc(CN(Cc2cn(C3CC3)c3cc(Cl)c(F)cc3c2=O)[C@H]2CCCN(c3cnccc3CO)C2)ccn1` [Example 74, 7-chloro-1-cyclopropyl-6-fluoro-3-({[(3S)-1-[4-(hydroxymethyl)pyridin-3-yl]piperidin-3-yl][(2-methylpyridin-4-yl)methyl]amino}methyl)-1,4-dihydroquinolin-4-one]: the EC50 in test [1] (setting [3]) and in test [2] (setting [4]) was 1 to 10 µM throughout. Regarding `C#CCOCCOCCOCCOCCOCCC(=O)Nc1ccc(CNC(=O)OCCOc2cc3c(cc2F)c(=O)c(CN(Cc2ccnc(C)c2)[C@H]2CCCN(c4cccnc4)C2)cn3C2CC2)cc1` [Example 84A, 2-{[1-cyclopropyl-6-fluoro-3-({[(2-methylpyridin-4-yl)methyl][(3S)-1-(pyridin-3-yl)piperidin-3-yl]amino}methyl)-4-oxo-1,4-dihydroquinolin-7-yl]oxy}ethyl N-{[4-(4,7,10,13,16-pentaoxanonadec-18-ynamido)phenyl]methyl}carbamate], the EC50 in test [1] (setting [3]) and in test [2] (setting [4]) was less than 1 µM each time. For the compound `Cc1cc(CN(Cc2cn(C3CC3)c3cc(OCCO)c(F)cc3c2=O)[C@H]2C[C@H](F)CN(c3cccnc3)C2)ccn1` [Example 89, 1-cyclopropyl-6-fluoro-3-({[(3S,5S)-5-fluoro-1-(pyridin-3-yl)piperidin-3-yl][(2-methylpyridin-4-yl)methyl]amino}methyl)-7-(2-hydroxyethoxy)-1,4-dihydroquinolin-4-one hydrochloride], the EC50 in test [1] (setting [3]) and in test [2] (setting [4]) was less than 1 µM each time. Turning to `Cc1ccc(N2CCC[C@H](N(Cc3ccnc(C)c3)Cc3cn(C4CC4)c4cc(-n5cnc(C(N)=O)c5)c(F)cc4c3=O)C2)cn1` [Example 64, 1-[1-Cyclopropyl-6-fluoro-3-({[(3S)-1-(6-methylpyridin-3-yl)piperidin-3-yl][(2-methylpyridin-4-yl)methyl]amino}methyl)-4-oxo-1,4-dihydroquinolin-7-yl]-1H-imidazole-4-carboxamide], the EC50 in test [1] (setting [3]) and in test [2] (setting [4]) was less than 1 µM throughout. For `Cc1cc(CN(Cc2cn(C(C)C)c3cc(N4CC[C@@H](O)C4)ccc3c2=O)[C@H]2CCCN(c3cn[nH]c3)C2)ccn1` [Example 69, 7-[(3R)-3-hydroxypyrrolidin-1-yl]-3-({[(2-methylpyridin-4-yl)methyl][(3S)-1-(1H-pyrazol-4-yl)piperidin-3-yl]amino}methyl)-1-(propan-2-yl)-1,4-dihydroquinolin-4-one], the EC50 in test [1] (setting [3]) and in test [2] (setting [4]) was 1 to 10 µM each time.

As for `Cc1ccc(N2CCC[C@H](N(Cc3ccnc(C)c3)Cc3cn(C4CC4)c4cc(-c5cnn(CCO)c5)c(F)cc4c3=O)C2)cn1` [Example 62, 1-Cyclopropyl-6-fluoro-7-[1-(2-hydroxyethyl)-1H-pyrazol 4-yl]-3-({[(3S)-1-(6-methylpyridin-3-yl)piperidin-3-yl][(2-methylpyridin-4-yl)methyl]amino}methyl)-1,4-dihydroquinolin-4-one], the EC50 in test [1] (setting [3]) and in test [2] (setting [4]) was less than 1 µM throughout. Take `Cc1ccc(N2CCC[C@H](N(Cc3ccnc(C)c3)Cc3cn(C4CC4)c4cc(N5CCN(CCO)CC5)c(F)cc4c3=O)C2)cn1` [Example 70, 1-cyclopropyl-6-fluoro-7-[4-(2-hydroxyethyl)piperazin-1-yl]-3-({[(3S)-1-(6-methylpyridin-3-yl)piperidin-3-yl][(2-methylpyridin-4-yl)methyl]amino}methyl)-1,4-dihydroquinolin-4-one]: the EC50 in test [1] (setting [3]) and in test [2] (setting [4]) was less than 1 µM each time. Turning to `Cc1ccc(N2CCC[C@H](N(Cc3ccnc(C)c3)Cc3cn(C4CC4)c4cc(N5CC[C@@H](N(C)C(=O)CCOCCOCCOCCNC(=O)OC(C)(C)C)C5)c(F)cc4c3=O)C2)cn1` [Example 55C, tert-Butyl N-(2-{2-[2-(2-{[(3R)-1-[1-cyclopropyl-6-fluoro-3-({[(3S)-1-(6-methylpyridin-3-yl)piperidin-3-yl][(2-methylpyridin-4-yl)methyl]amino}methyl)-4-oxo-1,4-dihydroquinolin-7-yl]pyrrolidin-3-yl](methyl)carbamoyl}ethoxy)ethoxy]ethoxy}ethyl)carbamate], the EC50 in test [1] (setting [3]) and in test [2] (setting [4]) was less than 1 µM each time. With `Cc1cc(CN(Cc2cn(C3CC3)c3cc(OCCO)c(F)cc3c2=O)[C@H]2CCCN(c3ccc(C4CC4)nc3)C2)ccn1` [Example 100, 1-cyclopropyl-3-({[(3S)-1-(6-cyclopropylpyridin-3-yl)piperidin-3-yl][(2-methylpyridin-4-yl)methyl]amino}methyl)-6-fluoro-7-(2-hydroxyethoxy)-1,4-dihydroquinolin-4-one], the EC50 in test [1] (setting [3]) and in test [2] (setting [4]) was less than 1 µM throughout. For `Cc1cc(CN(Cc2cn(C3CC3)c3cc(N4CC[C@H](CO)C4)c(F)cc3c2=O)[C@H]2CCCN(c3cccnc3)C2)ccn1` [Example 87, 1-cyclopropyl-6-fluoro-7-[(3S)-3-(hydroxymethyl)pyrrolidin-1-yl]-3-({[(2-methylpyridin-4-yl)methyl][(3S)-1-(pyridin-3-yl)piperidin-3-yl]amino}methyl)-1,4-dihydroquinolin-4-one hydrochloride], the EC50 in test [1] (setting [3]) and in test [2] (setting [4]) was less than 1 µM in each case.

Regarding `Cc1cc(CN(Cc2cn(C)c3ccccc3c2=O)[C@H]2CCCN(c3ccc(CCO)nc3)C2)ccn1` [Example 43, 3-({[(3S)-1-[6-(2-hydroxyethyl)pyridin-3-yl]piperidin-3-yl][(2-methylpyridin-4-yl)methyl]amino}methyl)-1-methyl-1,4-dihydroquinolin-4-one], the concentration giving a half-maximal response (EC50) in test [1] (Homo sapiens, THP1-Dual, 18 h) fell in the range of 1 to 10 µM; in test [2] (18 h), 1 to 10 µM. Regarding `Cc1cc(CN(Cc2cn(C3CC3)c3cc(OCCO)c(F)cc3c2=O)[C@H]2CCCN(c3ccc(N(C)C)nc3)C2)ccn1` [Example 92, 1-cyclopropyl-3-({[(3S)-1-[6-(dimethylamino)pyridin-3-yl]piperidin-3-yl][(2-methylpyridin-4-yl)methyl]amino}methyl)-6-fluoro-7-(2-hydroxyethoxy)-1,4-dihydroquinolin-4-one hydrochloride], the EC50 in test [1] (setting [3]) and in test [2] (setting [4]) was less than 1 µM in each case. Turning to `Cc1cc(CN(Cc2cn(C(C)C)c3cc(N4CC[C@@H](O)C4)ccc3c2=O)[C@H]2CCCN(c3cncnc3)C2)ccn1` [Example 59, 7-[(3R)-3-Hydroxypyrrolidin-1-yl]-3-({[(2-methylpyridin-4-yl)methyl][(3S)-1-(pyrimidin-5-yl)piperidin-3-yl]amino}methyl)-1-(propan-2-yl)-1,4-dihydroquinolin-4-one], the EC50 in test [1] (setting [3]) and in test [2] (setting [4]) was greater than 10 µM in each case. With `Cc1cc(CN(Cc2cn(C3CC3)c3cc(N4CC[C@@H](CO)C4)c(F)cc3c2=O)[C@H]2CCCN(c3cnccn3)C2)ccn1` [Example 91, 1-cyclopropyl-6-fluoro-7-[(3R)-3-(hydroxymethyl)pyrrolidin-1-yl]-3-({[(2-methylpyridin-4-yl)methyl][(3S)-1-(pyrazin-2-yl)piperidin-3-yl]amino}methyl)-1,4-dihydroquinolin-4-one hydrochloride], the EC50 in test [1] (setting [3]) and in test [2] (setting [4]) was less than 1 µM throughout. In the case of `C#CCOCCOCCOCCOCCOCCC(=O)Nc1ccc(COC(=O)N(C)CCOc2cc3c(cc2F)c(=O)c(CN(Cc2ccnc(C)c2)[C@H]2CCCN(c4ccc(C)nc4)C2)cn3C2CC2)cc1` [Example 11F, [4-(4,7,10,13,16-pentaoxanonadec-18-ynamido)phenyl]methyl N-(2-{[1-cyclopropyl-6-fluoro-3-({[(3S)-1-(6-methylpyridin-3-yl)piperidin-3-yl][(2-methylpyridin-4-yl)methyl]amino}methyl)-4-oxo-1,4-dihydroquinolin-7-yl]oxy}ethyl)-N-methylcarbamate], the EC50 in test [1] (setting [3]) and in test [2] (setting [4]) was less than 1 µM each time. Take `Cc1ccc(N2CCC[C@H](N(Cc3ccnc(C)c3)Cc3cn(C4CC4)c4cc(N5CCC(N(C)C(=O)OCc6ccc(NC(=O)[C@H](CCCNC(N)=O)NC(=O)[C@@H](NC(=O)CCOCCOCCOCCN=[N+]=[N-])C(C)C)cc6)CC5)c(F)cc4c3=O)C2)cn1` [Example 19A]: the EC50 in test [1] (setting [3]) and in test [2] (setting [4]) was 1 to 10 µM each time. With `Cc1cc(CN(Cc2cn(C3CC3)c3cc(N4CCC(CO)C4)c(F)cc3c2=O)[C@H]2CCCN(c3cccnc3)C2)ccn1` (stereo in doubt) [Example 88, 1-cyclopropyl-6-fluoro-7-[(3R)-3-(hydroxymethyl)pyrrolidin-1-yl]-3-({[(2-methylpyridin-4-yl)methyl][(3S)-1-(pyridin-3-yl)piperidin-3-yl]amino}methyl)-1,4-dihydroquinolin-4-one hydrochloride], in test [1] (18 h stimulation, luminescence), the EC50 is less than 1 µM.

In general, EC50 refers to the concentration that produces a half-maximal response.

For the origin of these results see patent publication US12643879B2, “Functionalized heterocyclic compounds as modulators of stimulator of interferon genes (STING)” (RYVU THERAPEUTICS S.A., priority 2019, dated 2026).
